Data: patent US20260325655A1, “DECREASING THE INTRINSICALLY DISORDERED PROTEIN ALPHA-SYNUCLEIN’S LEVELS BY TARGETING ITS STRUCTURED MRNA WITH A RIBONUCLEASE TARGETING CHIMERA” (University of Florida Research Foundation, Incorporated, priority 2023, published 2026)

Key:
fully base paired RNA = assay: MST binding to fully base paired control RNA; settings: microscale thermophoresis
Procedure: (§1) Binding Affinity Measurements: Microscale Thermophoresis (MST). Binding affinity measurements were performed on a Monolith NT.115 MST system (NanoTemper Technologies) with Cy5-labeled oligonucleotides. Briefly, Cy5-labeled RNA (5 nM) was prepared in 1× Folding Buffer and folded by heating at 60° C. for 5 min and then slowly cooling to room temperature. After cooling, Tween-20 was added to a final concentration of 0.1% (v/v). Compound solutions were prepared separately in 30 μL of 1× Assay Buffer at a final concentration of 5 μM (1% (v/v) DMSO), followed by 1:1 serial dilutions in 1× Assay Buffer. RNA and compound solutions were then mixed 1:1 by volume.
(§2) Samples were incubated for 20 min at room temperature and then loaded into premium capillaries (NanoTemper Technologies, Cat #MO-K025). The following parameters were used for MST measurement: 5-20% LED power (adjusted to keep fluorescence intensity between 8000 and 18000), 80% MST power, Laser-On time=30 s, and Laser-Off time=5 s. The resulting data were analyzed by calculating the change in thermophoresis as a function of compound concentration and fitted by Equation (3) in MST analysis software (NanoTemper Technologies) to yield the dissociation constant (Kd):
(§3) where F is the concentration of fluorescently labeled RNA; unbound and bound refer to the thermophoresis signal at completely unbound and bound state of RNA, respectively; c is the concentration of the compound; f (c) is the thermophoresis signal at compound concentration of c; Kd is the dissociation constant.

SNCA IRE = assay: MST binding affinity for SNCA IRE (A bulge model RNA); settings: microscale thermophoresis; Cy5-labeled RNA
Procedure: as §1, §2, §3

[1] = test system: control luciferase reporter lacking an IRE; assay: control luciferase reporter lacking an IRE; assay type: cell-based, human; settings: reporter lacks IRE / SNCA-UTR sequence
Text: (§4) Plasmid constructs and establishment of reporter gene overexpressing cells. Construction of pIRES-Luc-EGFP-puro plasmid and pCDH-α-syn-5′-UTR-Luc-EGFP-puro plasmid used in 5′ UTR-luciferase-based selectivity assay were previously described.^4 Briefly, In-Fusion PCR cloning system (Takara Bio, Mountain View, CA, USA) was used for all plasmid constructions per the manufacturer's instructions. To ensure sequence accuracy, all plasmids generated in this study were confirmed by sequencing.
(§5) Luciferase assay. The effect of compounds on translation of SNCA IRE-containing transcript was measured by using a luciferase reporter assay. HeLa cells (~60% confluency) were transfected with plasmids (2 μg per 60 mm dish) by using JetPrime (Polyplus Transfection) according to the manufacturer's recommended procedures. Approximately 16 h after transfection, the transfection cocktail was removed, and the cells were trypsinized and seeded to 96-well plates (8,000 cells per well). After 6 h, cells were treated as described in Cell Culture. To measure the luciferase signals, the cells were then washed with 1× DPBS, and luciferase activity in each well was measured by using the ONE-Glo Luciferase Assay System (Promega) per the manufacturer's instructions. Luminescence from firefly luciferase reaction was measured using a Biomek FLx800 plate reader.

[2] = test system: SNCA IRE-luciferase transcript; assay: SNCA IRE-luciferase transcript abundance by RT-qPCR; assay type: cell-based, human
Procedure: RNA extraction and reverse transcription-quantitative polymerase chain reaction (RT-qPCR). Total RNA was extracted from cells using a Quick-RNA MiniPrep Kit (Zymo Research) per the manufacturer's protocol including DNase treatment. For each sample, 200 ng of RNA was reverse transcribed into cDNA by using a qScript cDNA Synthesis Kit (QuantaBio) according to the manufacturer's instructions. To assess the relative mRNA levels, RT-qPCR was performed in triplicate using SYBR Green PCR mater mix (Applied Biosystems) with a Quant Studio 5 Real-Time PCR system. The relative levels of mRNA were calculated by using the ΔΔCt method as previously described.^8
as §4

RNase L = settings: regioisomer recruiter module of Syn-CTRL vs active recruiter (ref 48); cited from earlier work
SNCA-UTR-Luciferase = assay: SNCA-UTR luciferase reporter assay; assay type: cell-based, human; settings: highest concentration tested
Text: as §4, §5

SMILES: CCOC(=O)C1=C(Nc2ccccc2)S/C(=C\c2ccc(O)c(OCCOCCOCCOCCNC(=O)CCCOc3ccc(-n4c(SCC(=O)Nc5ccc6cn[nH]c6c5)nnc4-c4ccncc4)cc3)c2)C1=O [Syn-CTRL]
- binding towards the fully base paired RNA (fully base paired RNA): no saturable binding
- Kd (SNCA IRE): 97 ± 3 nM
- inhibition in the control luciferase reporter [1]: Neither compound showed inhibition
- effect on SNCA IRE-luciferase transcript levels (in words) [2]: no effect
- loss of activity of the RNase L-recruiting module in inducing RNase L cleavage (RNase L): ~ 20 -fold less active
- decrease of luminescence signal (in words) (SNCA-UTR-Luciferase): modest decrease
